Reference: ChEMBL document CHEMBL1201862, “PubChem BioAssay data set” (2004)
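Where inhibition never reached the appropriate level, the endpoint shown equals the highest concentration tested. Otherwise, values were interpolated linearly from a five-concentration, 48-hour dose response in 96-well plates. GI50 is the concentration that inhibits growth by half.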 Calls of active or inactive are those of the source. Rule as the data show it: active = GI50 up to about 1.1 µM and inactive = higher.

Tests used:
Assay in all cases: NCI tumour cell line growth inhibition, 48 h
MDA-MB-435 = system: MDA-MB-435
NCI-H226 = system: NCI-H226
DU-145 = system: DU-145
MDA-MB-231 = system: MDA-MB-231
CCRF-CEM = system: CCRF-CEM
T47D = system: T47D
786-0 = system: 786-0
BT-549 = system: BT-549
COLO 205 = system: COLO 205
SK-MEL-5 = system: SK-MEL-5
OVCAR-5 = system: OVCAR-5
CAKI-1 = system: CAKI-1
IGROV-1 = system: IGROV-1
HT-29 = system: HT-29
UACC-257 = system: UACC-257
NCI/ADR-RES = system: NCI/ADR-RES
OVCAR-8 = system: OVCAR-8
SF-295 = system: SF-295
UACC-62 = system: UACC-62
OVCAR-4 = system: OVCAR-4

Measured: GI50

NC(=O)c1sc2nc3ccccc3n2c1N
inactive: MDA-MB-435 > 100 µM | NCI-H226 > 100 µM | DU-145 84.9 µM | MDA-MB-231 24.9 µM | CCRF-CEM > 100 µM | T47D > 100 µM | 786-0 40 µM | BT-549 14.4 µM | COLO 205 > 100 µM | SK-MEL-5 > 100 µM | OVCAR-5 > 100 µM | CAKI-1 92.7 µM | IGROV-1 51.5 µM | HT-29 > 100 µM | UACC-257 > 100 µM | NCI/ADR-RES > 100 µM | OVCAR-8 65.8 µM | SF-295 23.8 µM | UACC-62 20 µM | OVCAR-4 > 100 µM

CN1CCN(CC(=O)Nc2cccc3ccccc23)CC1
inactive: MDA-MB-435 > 100 µM | NCI-H226 > 100 µM | DU-145 > 100 µM | MDA-MB-231 > 100 µM | CCRF-CEM > 100 µM | T47D > 100 µM | 786-0 > 100 µM | BT-549 > 100 µM | COLO 205 > 100 µM | SK-MEL-5 > 100 µM | OVCAR-5 > 100 µM | CAKI-1 > 100 µM | IGROV-1 > 100 µM | HT-29 > 31.6 µM | UACC-257 > 100 µM | NCI/ADR-RES > 100 µM | OVCAR-8 > 100 µM | SF-295 > 100 µM | UACC-62 > 100 µM | OVCAR-4 > 100 µM

Cc1nc(O)nc(N/N=C/c2ccc(Cl)c(Cl)c2)c1C(=O)Nc1ccc(Cl)c(Cl)c1
inactive: MDA-MB-435 11.1 µM | NCI-H226 28.4 µM | DU-145 12.6 µM | MDA-MB-231 2.44 µM | CCRF-CEM 8.65 µM | T47D 24.7 µM | 786-0 10.3 µM | BT-549 19.5 µM | COLO 205 13.1 µM | SK-MEL-5 9.59 µM | OVCAR-5 26.5 µM | CAKI-1 17.2 µM | IGROV-1 13.8 µM | HT-29 14.9 µM | UACC-257 > 24.6 µM | NCI/ADR-RES 16.3 µM | OVCAR-8 4.27 µM | SF-295 10.6 µM | UACC-62 17.6 µM | OVCAR-4 3.62 µM

COc1cc2cc3c4c(cc(OC)c(OC)c4c2cc1OC)CCN3C
inactive: MDA-MB-435 5.56 µM | NCI-H226 7.35 µM | DU-145 4.97 µM | MDA-MB-231 7.73 µM | CCRF-CEM 1.36 µM | T47D 1.67 µM | 786-0 4.29 µM | BT-549 6.46 µM | COLO 205 7.64 µM | SK-MEL-5 6.03 µM | OVCAR-5 21 µM | CAKI-1 4.86 µM | IGROV-1 4.21 µM | HT-29 6.89 µM | UACC-257 9.12 µM | NCI/ADR-RES 4.2 µM | OVCAR-8 12.7 µM | SF-295 3.07 µM | UACC-62 4.83 µM | OVCAR-4 2.51 µM

CC1=C/C(=N\O)C(C(O)(C(F)(F)F)C(F)(F)F)C(C)(C)C1 (stereo not given)
inactive: MDA-MB-435 > 10 µM | NCI-H226 > 10 µM | DU-145 > 10 µM | MDA-MB-231 > 10 µM | CCRF-CEM > 10 µM | T47D > 10 µM | 786-0 > 10 µM | BT-549 > 10 µM | COLO 205 > 10 µM | SK-MEL-5 > 10 µM | OVCAR-5 > 10 µM | CAKI-1 > 10 µM | IGROV-1 > 10 µM | HT-29 > 10 µM | UACC-257 > 10 µM | NCI/ADR-RES > 10 µM | OVCAR-8 > 10 µM | SF-295 > 10 µM | UACC-62 > 10 µM | OVCAR-4 > 10 µM

O=C(O)CC[P+](c1ccccc1)(c1ccccc1)c1ccccc1
inactive: MDA-MB-435 26.5 µM | NCI-H226 53.5 µM | DU-145 48.2 µM | MDA-MB-231 57.5 µM | CCRF-CEM 50.7 µM | T47D 7.94 µM | 786-0 30.6 µM | BT-549 21.1 µM | COLO 205 14.3 µM | SK-MEL-5 14.6 µM | OVCAR-5 38.1 µM | CAKI-1 > 100 µM | IGROV-1 15 µM | HT-29 15.4 µM | UACC-257 23.2 µM | NCI/ADR-RES > 100 µM | OVCAR-8 43.5 µM | SF-295 79.6 µM | UACC-62 22.3 µM | OVCAR-4 46.2 µM

COc1ccc(-c2cc3c(nn2)-c2ccccc2C3=O)cc1
inactive: MDA-MB-435 > 10 µM | NCI-H226 > 10 µM | DU-145 > 10 µM | MDA-MB-231 > 10 µM | CCRF-CEM 6.38 µM | T47D > 10 µM | 786-0 > 10 µM | BT-549 > 10 µM | COLO 205 > 10 µM | SK-MEL-5 > 10 µM | OVCAR-5 > 10 µM | CAKI-1 > 10 µM | IGROV-1 > 10 µM | HT-29 > 10 µM | UACC-257 > 10 µM | NCI/ADR-RES > 10 µM | OVCAR-8 > 10 µM | SF-295 > 10 µM | UACC-62 > 10 µM | OVCAR-4 > 10 µM

CC(=O)OC1(C)C(=O)OC/C2=C/CN(C)CCC(OC(=O)C(O)(C(C)Cl)CC1C)C2=O.c1ccccc1 (stereo not given)
inactive: MDA-MB-435 > 100 µM | NCI-H226 > 100 µM | DU-145 > 100 µM | MDA-MB-231 > 100 µM | CCRF-CEM > 100 µM | T47D > 100 µM | 786-0 > 100 µM | BT-549 > 100 µM | COLO 205 > 100 µM | SK-MEL-5 > 100 µM | OVCAR-5 > 100 µM | CAKI-1 > 100 µM | IGROV-1 > 100 µM | HT-29 > 100 µM | UACC-257 > 100 µM | NCI/ADR-RES > 100 µM | OVCAR-8 > 100 µM | SF-295 > 100 µM | UACC-62 > 100 µM | OVCAR-4 > 100 µM

CN(C)/C=N\c1cccc2cnccc12
inactive: MDA-MB-435 > 100 µM | NCI-H226 > 100 µM | DU-145 > 100 µM | MDA-MB-231 > 100 µM | CCRF-CEM > 100 µM | T47D > 100 µM | 786-0 > 100 µM | BT-549 > 100 µM | COLO 205 > 100 µM | SK-MEL-5 > 100 µM | OVCAR-5 > 100 µM | CAKI-1 > 100 µM | IGROV-1 > 100 µM | HT-29 > 100 µM | UACC-257 > 100 µM | NCI/ADR-RES > 100 µM | OVCAR-8 > 100 µM | SF-295 > 100 µM | UACC-62 > 100 µM | OVCAR-4 > 100 µM

COc1cc(-c2c3c([nH]c(=O)c2C#N)-c2cc([N+](=O)[O-])ccc2CCC3)cc(OC)c1OC
inactive: MDA-MB-435 25.9 µM | NCI-H226 22.7 µM | DU-145 25.8 µM | MDA-MB-231 19.9 µM | CCRF-CEM 21.7 µM | T47D 14.1 µM | 786-0 24.7 µM | BT-549 17.5 µM | COLO 205 22 µM | SK-MEL-5 12.9 µM | OVCAR-5 23.7 µM | CAKI-1 26.9 µM | IGROV-1 33.1 µM | HT-29 37.5 µM | UACC-257 26.9 µM | NCI/ADR-RES 42.4 µM | OVCAR-8 17.8 µM | SF-295 16.1 µM | UACC-62 13.3 µM | OVCAR-4 21.5 µM
